The numbers were not newly measured in patent US20040131544A1, “In vivo imaging” (priority 1999, published 2004), which cites them from elsewhere.

For this data set the following is noted: background statement; Doze, et al., Nuclear Medicine and Biology 27:315-319 (2000).

Take `CC(C)NCC(O)COc1cccc2[nH]c3ccccc3c12` (stereo not shown) [carazolol]: the “adverse properties (mutagenicity / toxicity)” value is “not toxic”.
